Measured values reported in patent publication US20220117938A1, “COMBINATON THERAPY WITH A DON PRODRUG AND AN IMMUNE CHECKPOINT INHIBITOR” (DRACEN PHARMACEUTICALS, INC., priority 2019, published 2022).

Test system: CT26.WT tumors
Assay: Anti-tumor efficacy of Compound 1 by IV and SC routes in the CT26.WT model (Example 8)
Type: in vivo, mice
Experimental: Female BALB/c mice were inoculated subcutaneously in the right flank with CT26.WT cells for tumor development. Six days after tumor inoculation, mice with tumor sizes ranging from 32-77 mm^3 (average tumor size 56 mm^3) were selected and assigned into 6 groups using stratified randomization with 8 mice per group based upon their tumor volumes. The treatments were started from the day of randomization (defined as D0), Group 1 was treated with Vehicle control, q.d.×5 days on (Mon-Fri)×4 cycles s.c.; Group 2 was treated with Compound 1, 0.7 mpk×5 days on (Mon-Fri)×4 cycles s.c.; Group 3 was treated with Compound 1, 1.4 mpk×5 days on (Mon-Fri)×4 cycles s.c.; Group 4 was treated with Compound 1, 4.5 mpk×3-days on (Mon, Wed, Fri)×4 cycles, iv; Group 5 was treated with Compound 1, 7 mpk×2-days on (Mon,Thu)×4 cycles, iv; Group 6 was treated with Compound 1, 14 mpk×1-day on (Mon)×4 cycles, iv. The tumor sizes were measured three times per week during the treatment. The entire study was terminated on D44 after start of the treatment. All treatments were well-tolerated without any adverse effects or significant body weight loss.

[1] = Group 2, 0.7 mpk s.c. Mon-Fri x4 cycles
[2] = Group 2, 0.7 mpk s.c. Mon-Fri x4 cycles, day 16
[3] = Group 3, 1.4 mpk s.c. Mon-Fri x4 cycles
[4] = Group 3, 1.4 mpk s.c. Mon-Fri x4 cycles, day 16
[5] = Group 4, 4.5 mpk iv Mon,Wed,Fri x4 cycles
[6] = Group 4, 4.5 mpk iv Mon,Wed,Fri x4 cycles, day 16
[7] = Group 5, 7 mpk iv Mon,Thu x4 cycles
[8] = Group 5, 7 mpk iv Mon,Thu x4 cycles, day 16
[9] = Group 6, 14 mpk iv Mon x4 cycles
[10] = Group 6, 14 mpk iv Mon x4 cycles, day 16

For `CC(=O)N[C@@H](Cc1c[nH]c2ccccc12)C(=O)N[C@@H](CCC(=O)C=[N+]=[N-])C(=O)OC(C)C` [Compound 1, Isopropyl (S)-2-((S)-2-acetamido-3-(1H-indol-3-yl)propanamido)-6-diazo-5-oxohexanoate], the ILS [1] was 86.1%, the MST [1] was 33.5 days and the “RTV at day 16” value [1] was 4.45 ± 0.74. For the same compound, the Tumor volume (Group 2, 0.7 mpk s.c. Mon-Fri x4 cycles, day 0) was 56 ± 4 mm^3, the Tumor volume (Group 2, 0.7 mpk s.c. Mon-Fri x4 cycles, day 2) was 62 ± 7 mm^3 and the Tumor volume (Group 2, 0.7 mpk s.c. Mon-Fri x4 cycles, day 4) was 89 ± 10 mm^3. It also gave a Tumor volume (Group 2, 0.7 mpk s.c. Mon-Fri x4 cycles, day 7) of 124 ± 20 mm^3, a Tumor volume (Group 2, 0.7 mpk s.c. Mon-Fri x4 cycles, day 9) of 140 ± 22 mm^3 and a Tumor volume (Group 2, 0.7 mpk s.c. Mon-Fri x4 cycles, day 11) of 143 ± 21 mm^3. The Tumor volume (Group 2, 0.7 mpk s.c. Mon-Fri x4 cycles, day 14) was 261 ± 45 mm^3, the T/C [2] was 14.25% and the TGI [2] was 87.81%. It also gave a Tumor volume [2] of 259 ± 52 mm^3, a Tumor volume (Group 2, 0.7 mpk s.c. Mon-Fri x4 cycles, day 18) of 308 ± 63 mm^3 and a Tumor volume (Group 2, 0.7 mpk s.c. Mon-Fri x4 cycles, day 21) of 407 ± 83 mm^3. It also gave a Tumor volume (Group 2, 0.7 mpk s.c. Mon-Fri x4 cycles, day 23) of 522 ± 102 mm^3, a Tumor volume (Group 2, 0.7 mpk s.c. Mon-Fri x4 cycles, day 25) of 648 ± 130 mm^3 and a Tumor volume (Group 2, 0.7 mpk s.c. Mon-Fri x4 cycles, day 28) of 1030 ± 194 mm^3. The Tumor volume (Group 2, 0.7 mpk s.c. Mon-Fri x4 cycles, day 30) was 1585 ± 288 mm^3, the ILS [3] was 86.1% and the MST [3] was 33.5 days. For the same compound, the “RTV at day 16” value [3] was 4.94 ± 0.82, the Tumor volume (Group 3, 1.4 mpk s.c. Mon-Fri x4 cycles, day 0) was 56 ± 5 mm^3 and the Tumor volume (Group 3, 1.4 mpk s.c. Mon-Fri x4 cycles, day 2) was 55 ± 7 mm^3. It also gave a Tumor volume (Group 3, 1.4 mpk s.c. Mon-Fri x4 cycles, day 4) of 70 ± 8 mm^3, a Tumor volume (Group 3, 1.4 mpk s.c. Mon-Fri x4 cycles, day 7) of 107 ± 19 mm^3 and a Tumor volume (Group 3, 1.4 mpk s.c. Mon-Fri x4 cycles, day 9) of 118 ± 21 mm^3. The Tumor volume (Group 3, 1.4 mpk s.c. Mon-Fri x4 cycles, day 11) was 150 ± 26 mm^3, the Tumor volume (Group 3, 1.4 mpk s.c. Mon-Fri x4 cycles, day 14) was 235 ± 35 mm^3 and the T/C [4] was 15.82%. For the same compound, the TGI [4] was 86.45%, the Tumor volume [4] was 282 ± 52 mm^3 and the Tumor volume (Group 3, 1.4 mpk s.c. Mon-Fri x4 cycles, day 18) was 292 ± 49 mm^3. The Tumor volume (Group 3, 1.4 mpk s.c. Mon-Fri x4 cycles, day 21) was 406 ± 85 mm^3, the Tumor volume (Group 3, 1.4 mpk s.c. Mon-Fri x4 cycles, day 23) was 484 ± 103 mm^3 and the Tumor volume (Group 3, 1.4 mpk s.c. Mon-Fri x4 cycles, day 25) was 539 ± 119 mm^3. It also gave a Tumor volume (Group 3, 1.4 mpk s.c. Mon-Fri x4 cycles, day 28) of 853 ± 163 mm^3, a Tumor volume (Group 3, 1.4 mpk s.c. Mon-Fri x4 cycles, day 30) of 1372 ± 230 mm^3 and an ILS [5] of 61.1%. For the same compound, the MST [5] was 29 days, the “RTV at day 16” value [5] was 8.92 ± 1.58 and the Tumor volume (Group 4, 4.5 mpk iv Mon,Wed,Fri x4 cycles, day 0) was 56 ± 3 mm^3. For the same compound, the Tumor volume (Group 4, 4.5 mpk iv Mon,Wed,Fri x4 cycles, day 2) was 70 ± 6 mm^3, the Tumor volume (Group 4, 4.5 mpk iv Mon,Wed,Fri x4 cycles, day 4) was 92 ± 11 mm^3 and the Tumor volume (Group 4, 4.5 mpk iv Mon,Wed,Fri x4 cycles, day 7) was 126 ± 16 mm^3. For the same compound, the Tumor volume (Group 4, 4.5 mpk iv Mon,Wed,Fri x4 cycles, day 9) was 168 ± 24 mm^3, the Tumor volume (Group 4, 4.5 mpk iv Mon,Wed,Fri x4 cycles, day 11) was 223 ± 40 mm^3 and the Tumor volume (Group 4, 4.5 mpk iv Mon,Wed,Fri x4 cycles, day 14) was 427 ± 73 mm^3. It also gave a T/C [6] of 28.57%, a TGI [6] of 73.09% and a Tumor volume [6] of 503 ± 94 mm^3. The Tumor volume (Group 4, 4.5 mpk iv Mon,Wed,Fri x4 cycles, day 18) was 648 ± 148 mm^3, the Tumor volume (Group 4, 4.5 mpk iv Mon,Wed,Fri x4 cycles, day 21) was 948 ± 230 mm^3 and the ILS [7] was 61.1%. For the same compound, the MST [7] was 29 days, the “RTV at day 16” value [7] was 7.58 ± 1.97 and the Tumor volume (Group 5, 7 mpk iv Mon,Thu x4 cycles, day 0) was 56 ± 4 mm^3. It also gave a Tumor volume (Group 5, 7 mpk iv Mon,Thu x4 cycles, day 2) of 71 ± 9 mm^3, a Tumor volume (Group 5, 7 mpk iv Mon,Thu x4 cycles, day 4) of 78 ± 11 mm^3 and a Tumor volume (Group 5, 7 mpk iv Mon,Thu x4 cycles, day 7) of 142 ± 26 mm^3. It also gave a Tumor volume (Group 5, 7 mpk iv Mon,Thu x4 cycles, day 9) of 166 ± 37 mm^3, a Tumor volume (Group 5, 7 mpk iv Mon,Thu x4 cycles, day 11) of 185 ± 45 mm^3 and a Tumor volume (Group 5, 7 mpk iv Mon,Thu x4 cycles, day 14) of 395 ± 114 mm^3. The T/C [8] was 24.28%, the TGI [8] was 76.00% and the Tumor volume [8] was 455 ± 131 mm^3. The Tumor volume (Group 5, 7 mpk iv Mon,Thu x4 cycles, day 18) was 518 ± 135 mm^3, the Tumor volume (Group 5, 7 mpk iv Mon,Thu x4 cycles, day 21) was 878 ± 272 mm^3 and the ILS [9] was 47.2%. For the same compound, the MST [9] was 26.5 days, the “RTV at day 16” value [9] was 7.02 ± 0.87 and the Tumor volume (Group 6, 14 mpk iv Mon x4 cycles, day 0) was 56 ± 5 mm^3. For the same compound, the Tumor volume (Group 6, 14 mpk iv Mon x4 cycles, day 2) was 69 ± 7 mm^3, the Tumor volume (Group 6, 14 mpk iv Mon x4 cycles, day 4) was 78 ± 5 mm^3 and the Tumor volume (Group 6, 14 mpk iv Mon x4 cycles, day 7) was 163 ± 24 mm^3. The Tumor volume (Group 6, 14 mpk iv Mon x4 cycles, day 9) was 160 ± 22 mm^3, the Tumor volume (Group 6, 14 mpk iv Mon x4 cycles, day 11) was 204 ± 29 mm^3 and the Tumor volume (Group 6, 14 mpk iv Mon x4 cycles, day 14) was 425 ± 72 mm^3. The T/C [10] was 22.49%, the TGI [10] was 78.92% and the Tumor volume [10] was 406 ± 74 mm^3. The Tumor volume (Group 6, 14 mpk iv Mon x4 cycles, day 18) was 578 ± 89 mm^3, the Tumor volume (Group 6, 14 mpk iv Mon x4 cycles, day 21) was 1035 ± 150 mm^3 and the Tumor volume (Group 6, 14 mpk iv Mon x4 cycles, day 23) was 1216 ± 177 mm^3. It also gave a Tumor volume (Group 6, 14 mpk iv Mon x4 cycles, day 25) of 1684 ± 231 mm^3.
